Reference: ChEMBL document CHEMBL5380791, “Modular Biomimetic Strategy Enabled Discovery of Simplified Pseudo-Natural Macrocyclic P-Glycoprotein Inhibitors Capable of Overcoming Multidrug Resistance” (J Med Chem, 2023)
pIC50: −log10 of the molar value. Active and inactive are the calls of the source. The calls are words filed in the database; no cut-off is given here.

Assays:
[1] = Toxicity in Balb/cA nude mouse xenografted with human KBv200 cells assessed as mortality at 75 mg/kg, ip qd administered for 13 days; type: organism-based; settings: in vivo, 312 h, time 13 day
OVCAR-8 = assay: Reversal of vinorelbine resistance in human OVCAR-8 cells assessed as reduction in cell viability incubated for 72 hrs in presence of vinorelbine (reference value: 16.2+/-4.7 nM); type: functional, cell-based; settings: OVCAR-8, 72 h
KBv200 [2] = assay: Reversal of vinorelbine resistance in human KBv200 cells assessed as reduction in cell viability incubated for 72 hrs in presence of vinorelbine (reference value: 224 to 228.30 nM); type: functional, cell-based; settings: KBv200, 72 h, read-out: IC50
KBv200 [3] = assay: Induction of apoptosis in human KBv200 cells assessed as increase in cleaved caspase 9 level at 5 uM incubated for 24 hrs by Western blotting analysis; type: functional, cell-based
KBv200 [4] = assay: Induction of apoptosis in human KBv200 cells assessed as increase in cleaved caspase 3 level at 5 uM incubated for 24 hrs in presence of vinorelbine by Western blotting analysis; type: functional, cell-based
KBv200 [5] = assay: Reversal of paclitaxel resistance in human KBv200 cells assessed as reduction in cell viability incubated for 72 hrs in presence of paclitaxel (reference value: 392.9+/-196.5 nM); type: functional, cell-based; settings: KBv200, 72 h
KBv200 [6] = assay: Reversal fold, ratio of vinorelbine IC50 for cytotoxicity against human KBv200 cells over test compound IC50 for reversal of vinorelbine resistance in human KBv200 cells; type: functional
KB = assay: Reversal of vinorelbine resistance in human KB cells assessed as reduction in cell viability incubated for 72 hrs in presence of vinorelbine (reference value: 7.4+/-2.2 nM); type: functional, cell-based
[7] = Toxicity in Balb/cA nude mouse xenografted with human KBv200 cells assessed as changes in body weight at 75 mg/kg, ip qd administered for 13 days; type: organism-based; settings: in vivo, 312 h, time 13 day
[8] = AUCinf in CD-1 mouse at 30 mg/kg, po; type: ADME, organism-based; set-up: dose 30 mg/kg, route po; settings: in vivo
[9] = Half life in CD-1 mouse at 3 mg/kg, iv; type: ADME, organism-based; settings: in vivo
K562/Adr = assay: Reversal of vinorelbine resistance in human K562/Adr cells assessed as reduction in cell viability incubated for 72 hrs in presence of vinorelbine (reference value: 7320.6+/-2115.2 nM); type: functional, cell-based
KBv200 [10] = assay: Antitumor activity against human KBv200 cells xenografted in Balb/cA nude mouse assessed as mean tumor volume at 75 mg/kg, ip administered as single dose and measured on day 0; type: functional
[11] = Cytotoxicity against human HEK293T cells assessed as reduction in cell viability incubated for 48 hrs by CCK-8 assay; type: toxicity, cell-based, HEK-293T
[12] = AUCinf in CD-1 mouse at 3 mg/kg, iv; type: ADME, organism-based; set-up: dose 3 mg/kg, route iv; settings: in vivo
KBv200 [13] = assay: Antitumor activity against human KBv200 cells xenografted in Balb/cA nude mouse assessed as tumor growth inhibition at 75 mg/kg, ip qd administered for 13 days; type: functional; settings: KBv200, 312 h, time 13 day
[14] = AUClast in CD-1 mouse at 30 mg/kg, po; type: ADME, organism-based; set-up: dose 30 mg/kg, route po; settings: in vivo
KBv200 [15] = assay: Induction of apoptosis in human KBv200 cells assessed as increase in cleaved PARP level at 5 uM incubated for 24 hrs by Western blotting analysis; type: functional, cell-based
KBv200 [16] = assay: Antitumor activity against human KBv200 cells xenografted in Balb/cA nude mouse assessed as mean tumor volume at 75 mg/kg, ip qd administered for 13 days in presence of vinorelbine; type: functional; settings: time 13 day
[17] = target: ATP-dependent translocase ABCB1 (Homo sapiens, UniProt P08183); assay: Inhibition of P-gp in human KBv200 cells assessed as induction of conformation change by measuring increase in UIC-2 binding level at 50 uM incubated for 10 mins by UIC-2 reactivity shift assay; type: cell-based; settings: kbv200, 10 min
Sequence of ATP-dependent translocase ABCB1 (P08183 whole entry): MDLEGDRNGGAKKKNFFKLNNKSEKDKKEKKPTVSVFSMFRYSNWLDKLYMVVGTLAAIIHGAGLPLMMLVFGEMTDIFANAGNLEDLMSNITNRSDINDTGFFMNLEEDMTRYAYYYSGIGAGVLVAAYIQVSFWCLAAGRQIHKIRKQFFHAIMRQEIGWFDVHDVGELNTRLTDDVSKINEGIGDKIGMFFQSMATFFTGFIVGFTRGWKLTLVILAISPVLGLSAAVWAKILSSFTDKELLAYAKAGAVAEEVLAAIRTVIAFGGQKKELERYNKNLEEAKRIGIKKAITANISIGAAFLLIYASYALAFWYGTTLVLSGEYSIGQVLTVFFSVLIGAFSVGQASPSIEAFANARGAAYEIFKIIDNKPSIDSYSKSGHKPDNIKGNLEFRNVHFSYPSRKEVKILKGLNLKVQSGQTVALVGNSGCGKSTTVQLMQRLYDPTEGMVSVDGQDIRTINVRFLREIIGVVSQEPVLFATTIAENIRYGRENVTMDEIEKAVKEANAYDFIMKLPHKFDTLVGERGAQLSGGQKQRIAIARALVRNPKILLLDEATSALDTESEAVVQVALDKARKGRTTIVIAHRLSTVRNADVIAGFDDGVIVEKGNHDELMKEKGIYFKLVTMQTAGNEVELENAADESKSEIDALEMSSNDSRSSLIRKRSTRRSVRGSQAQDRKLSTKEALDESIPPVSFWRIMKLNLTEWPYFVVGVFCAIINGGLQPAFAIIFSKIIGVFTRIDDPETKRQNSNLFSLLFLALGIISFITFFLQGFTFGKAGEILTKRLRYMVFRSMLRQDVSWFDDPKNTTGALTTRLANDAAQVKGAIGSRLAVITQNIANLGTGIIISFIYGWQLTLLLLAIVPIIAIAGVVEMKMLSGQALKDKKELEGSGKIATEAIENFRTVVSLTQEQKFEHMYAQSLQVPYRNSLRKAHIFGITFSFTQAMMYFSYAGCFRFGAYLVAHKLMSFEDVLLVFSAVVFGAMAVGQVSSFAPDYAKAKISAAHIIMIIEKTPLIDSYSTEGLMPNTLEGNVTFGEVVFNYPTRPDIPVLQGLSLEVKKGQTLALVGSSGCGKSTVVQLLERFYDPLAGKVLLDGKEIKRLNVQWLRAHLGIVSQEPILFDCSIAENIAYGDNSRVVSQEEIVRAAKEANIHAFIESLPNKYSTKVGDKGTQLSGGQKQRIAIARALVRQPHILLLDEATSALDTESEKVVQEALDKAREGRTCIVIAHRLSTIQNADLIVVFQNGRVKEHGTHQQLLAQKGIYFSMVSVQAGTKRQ

[18] = Toxicity in Balb/cA nude mouse xenografted with human KBv200 cells assessed as changes in body weight at 75 mg/kg, ip qd administered for 13 days in presence of vinorelbine; type: organism-based; settings: in vivo, 312 h, time 13 day
[19] = Clearance in CD-1 mouse at 3 mg/kg, iv; type: ADME, organism-based; settings: in vivo
[20] = Oral bioavailability in CD-1 mouse at 30 mg/kg; type: ADME, organism-based; settings: in vivo
KBv200 [21] = assay: Downregulation of P-gp mRNA expression level in human KBV200 cells by qRT-PCR analysis; type: functional, cell-based
[22] = Tmax in CD-1 mouse at 25 mg/kg, ip; type: ADME, organism-based; settings: in vivo
[23] = Bioavailability in CD-1 mouse at 25 mg/kg, ip; type: ADME, organism-based; settings: in vivo
KBv200 [24] = assay: Reversal of adriamycin resistance in human KBv200 cells assessed as reduction in cell viability incubated for 72 hrs in presence of adriamycin (reference value: 1291.2+/-308.9 nM); type: functional, cell-based; settings: KBv200, 72 h
NCI/ADR-RES = assay: Reversal of vinorelbine resistance in human NCI/ADR-RES cells assessed as reduction in cell viability incubated for 72 hrs in presence of vinorelbine (reference value: 6125.7+/-3267.7 nM); type: functional, cell-based
[25] = Cytotoxicity against human L02 cells assessed as reduction in cell viability incubated for 48 hrs by CCK-8 assay; type: toxicity, cell-based
[26] = AUClast in CD-1 mouse at 25 mg/kg, ip; type: ADME, organism-based; set-up: dose 25 mg/kg, route ip; settings: in vivo
KBv200 [27] = assay: Antitumor activity against human KBv200 cells xenografted in Balb/cA nude mouse assessed as T/C ratio at 75 mg/kg, ip qd administered for 13 days in presence of vinorelbine; type: functional; settings: time 13 day
[28] = Half life in CD-1 mouse at 25 mg/kg, ip; type: ADME, organism-based; settings: in vivo
KBv200 [29] = assay: Antitumor activity against human KBv200 cells xenografted in Balb/cA nude mouse assessed as mean tumor volume at 75 mg/kg, ip administered as single dose and measured on day 0 in presence of vinorelbine; type: functional
[30] = AUCinf in CD-1 mouse at 25 mg/kg, ip; type: ADME, organism-based; set-up: dose 25 mg/kg, route ip; settings: in vivo
KBv200 [31] = assay: Induction of apoptosis in human KBv200 cells assessed as increase in cleaved caspase 3 level at 5 uM incubated for 24 hrs by Western blotting analysis; type: functional, cell-based
[32] = Cmax in CD-1 mouse at 30 mg/kg, po; type: ADME, organism-based; set-up: dose 30 mg/kg, route po; settings: in vivo
KBv200 [33] = assay: Antitumor activity against human KBv200 cells xenografted in Balb/cA nude mouse assessed as tumor growth inhibition at 75 mg/kg, ip qd administered for 13 days in presence of vinorelbine; type: functional; settings: KBv200, 312 h, time 13 day
[34] = AUClast in CD-1 mouse at 3 mg/kg, iv; type: ADME, organism-based; set-up: dose 3 mg/kg, route iv; settings: in vivo
[35] = Toxicity in Balb/cA nude mouse xenografted with human KBv200 cells assessed as mortality at 75 mg/kg, ip qd administered for 13 days in presence of vinorelbine; type: organism-based; settings: in vivo, 312 h, time 13 day
[36] = Cmax in CD-1 mouse at 25 mg/kg, ip; type: ADME, organism-based; set-up: dose 25 mg/kg, route ip; settings: in vivo
K562 = assay: Reversal of vinorelbine resistance in human K562 cells assessed as reduction in cell viability incubated for 72 hrs in presence of vinorelbine (reference value: 5.9+/-0.2 nM); type: functional, cell-based; settings: K562, 72 h
[37] = Tmax in CD-1 mouse at 30 mg/kg, po; type: ADME, organism-based; settings: in vivo
KBv200 [38] = assay: Induction of apoptosis in human KBv200 cells assessed as increase in cleaved caspase 9 level at 5 uM incubated for 24 hrs in presence of vinorelbine by Western blotting analysis; type: functional, cell-based
KBv200 [39] = assay: Induction of apoptosis in human KBv200 cells assessed as increase in cleaved PARP level at 5 uM incubated for 24 hrs in presence of vinorelbine by Western blotting analysis; type: functional, cell-based
KBv200 [40] = assay: Antitumor activity against human KBv200 cells xenografted in Balb/cA nude mouse assessed as mean tumor volume at 75 mg/kg, ip qd administered for 13 days; type: functional; settings: time 13 day
[41] = Half life in CD-1 mouse at 30 mg/kg, po; type: ADME, organism-based; settings: in vivo
KBv200 [42] = assay: Antitumor activity against human KBv200 cells xenografted in Balb/cA nude mouse assessed as T/C ratio at 75 mg/kg, ip qd administered for 13 days; type: functional; settings: time 13 day

With `CC(C)[C@H]1NC(=O)/C(c2ccccc2)=C\C=C(\c2ccccc2)CNC(=O)CCCCCCCCCCCNC1=O` the Activity [1] was “Non-Toxic”, the pIC50 (OVCAR-8) was 8.17 and the pIC50 (KBv200 [2]) was 9.13. For the same compound, the Activity (KBv200 [3]) was “inactive”, the Activity (KBv200 [4]) was “Active” and the pIC50 (KBv200 [5]) was 8.10. The “Ratio IC50” value (KBv200 [6]) was 386, the pIC50 (KB) was 8.66 and the Activity [7] was “Non-Toxic”. The AUC(0-inf) [8] was 2200 ng·h/mL, the half-life [9] was 1.23 h and the pIC50 (K562/Adr) was 5.92. For the same compound, the Activity (KBv200 [10]) was 121 mm3, the IC50 at 48 h [11] was > 100000 nM and the AUC(0-inf) [12] was 888 ng·h/mL. For the same compound, the inhibition in vivo at 75 mg/kg (KBv200 [13]) was -13%, the AUC(0-t) [14] was 2190 ng·h/mL and the Activity (KBv200 [15]) was “inactive”. The Activity (KBv200 [16]) was 1132.6 mm3, the Activity [17] was “Active” and the Activity [18] was “Non-Toxic”. For the same compound, the clearance [19] was 58.2 mL/min/kg, the bioavailability [20] was 24.7% and the Activity (KBv200 [21]) was “inactive”. The Tmax [22] was 7.2 min, the bioavailability [23] was 59.5% and the pIC50 (KBv200 [24]) was 6.97. The pIC50 (NCI/ADR-RES) was 6.21, the IC50 at 48 h [25] was > 100000 nM and the AUC(0-t) [26] was 4400 ng·h/mL. The T/C (KBv200 [27]) was 52%, the half-life [28] was 11.2 h and the Activity (KBv200 [29]) was 121.5 mm3. The AUC(0-inf) [30] was 5100 ng·h/mL, the Activity (KBv200 [31]) was “inactive” and the Cmax [32] was 1380 ng/mL. The inhibition in vivo at 75 mg/kg (KBv200 [33]) was 48%, the AUC(0-t) [34] was 887 ng·h/mL and the Activity [35] was “Non-Toxic”. For the same compound, the Cmax [36] was 2390 ng/mL, the pIC50 (K562) was 8.85 and the Tmax [37] was 0.25 h. The Activity (KBv200 [38]) was “Active”, the Activity (KBv200 [39]) was “Active” and the Activity (KBv200 [40]) was 2318.6 mm3. For the same compound, the half-life [41] was 1.24 h and the T/C (KBv200 [42]) was 113%.
